Measured values published in patent US6635641B2 (Agouron Pharmaceuticals, Inc., priority 2000, dated 2003).

Legend:
[1] = target: T1, phosphorylated VEGF-R2Δ50 (FLVK-P) (Homo sapiens, UniProt P35968, DEL940-989/E990V); assay: VEGF-R2 coupled spectrophotometric assay, phosphorylated construct (FLVK-P); type: biochemical
T1 construct: VEGF-R2Δ50 contains residues 806-939 and 990-1171; made in house; host or cells: baculovirus/insect cells
How it was run: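 Baculovirus-expressed VEGF-R2Δ50 (residues 806-939/990-1171, E990V), optionally autophosphorylated; ADP formation coupled via PK/LDH to NADH oxidation at 340 nm, pH 7.5 Hepes. FLVK-P: 1 mM ATP, 5.1 mM poly(E4Y1), 25 mM MgCl2; FLVK: 3 mM ATP, 20 mM poly(E4Y1), 60 mM MgCl2, 2 mM MnCl2. Ki from activity over compound concentrations.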

FL-CHK-1 = target: T2, FL-CHK-1 (Homo sapiens, UniProt O14757); assay: CHK-1 coupled spectrophotometric assay (Syntide-2); type: biochemical; settings: @ 1 μM; read-out: CHK-1 percent inhibition
T2 construct: C-terminally His-tagged full-length human CHK-1 (FL-CHK-1); made in house; host or cells: baculovirus/insect cells
T2 sequence (O14757 1-476): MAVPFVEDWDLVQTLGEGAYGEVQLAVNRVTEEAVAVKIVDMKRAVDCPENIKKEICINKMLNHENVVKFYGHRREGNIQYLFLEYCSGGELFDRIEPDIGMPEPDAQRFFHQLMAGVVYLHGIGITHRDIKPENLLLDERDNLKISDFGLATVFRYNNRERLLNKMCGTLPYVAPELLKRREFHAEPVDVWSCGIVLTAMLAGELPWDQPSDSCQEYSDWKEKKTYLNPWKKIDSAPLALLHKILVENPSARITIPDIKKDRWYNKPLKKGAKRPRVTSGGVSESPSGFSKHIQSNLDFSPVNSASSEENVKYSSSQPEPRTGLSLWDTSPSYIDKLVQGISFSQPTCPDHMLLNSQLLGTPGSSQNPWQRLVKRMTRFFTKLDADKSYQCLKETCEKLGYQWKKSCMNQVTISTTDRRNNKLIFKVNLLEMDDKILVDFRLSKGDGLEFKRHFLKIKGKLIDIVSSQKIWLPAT
Description: C-terminally His-tagged full-length human CHK-1 (FL-CHK-1) was expressed using the baculovirus/insect cell system. It contains 6 histidine residues (6×His-tag) at the C-terminus of the 476 amino acid human CHK-1. The protein was purified by conventional chromatographic techniques.
The production of ADP from ATP that accompanies phosphoryl transfer to the synthetic substrate peptide Syntide-2 ([…]) was coupled to oxidation of NADH using phosphoenolpyruvate (PEP) through the actions of pyruvate kinase (PK) and lactic dehydrogenase (LDH). The oxidation of NADH was monitored by following the decrease of absorbance at 340 nm (ε340=6.22 cm−1 mM^−1) using a HP8452 spectrophotometer. Typical reaction solutions contained: […]; 0.15 mM NADH; 28 units of LDH/ml; 16 units of PK/ml; 3 mM DTT; 0.125 mM Syntide-2; 0.15 mM ATP; 25 mM MgCl2 in 50 mM TRIS, pH 7.5; and 400 mM NaCl. Assays were initiated with 10 nM of FL-CHK-1. Ki values were determined by measuring initial enzyme activity in the presence of varying concentrations of test compounds. The data were analyzed using Enzyme Kinetic and Kaleidagraph software.

T1 sequence (P35968 with tags, fused parts or gaps DEL940-989/E990V limits assumed): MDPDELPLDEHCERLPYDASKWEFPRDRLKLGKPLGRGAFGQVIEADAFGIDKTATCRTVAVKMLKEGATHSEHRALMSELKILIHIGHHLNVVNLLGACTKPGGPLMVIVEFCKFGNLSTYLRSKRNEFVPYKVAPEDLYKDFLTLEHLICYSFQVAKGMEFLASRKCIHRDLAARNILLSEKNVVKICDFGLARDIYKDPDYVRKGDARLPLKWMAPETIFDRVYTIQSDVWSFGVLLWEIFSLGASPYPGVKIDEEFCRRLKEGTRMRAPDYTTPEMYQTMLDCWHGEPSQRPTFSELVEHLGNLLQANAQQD

SMILES | Ki [1] [nM] | melting point [°C] | inhibition at 1 µM (FL-CHK-1) [%]
Cc1ccc2cc(NC(=O)c3cccc(SCc4cc(Nc5ccccc5)n[nH]4)c3)ccc2n1 [Example E-1, N-(2-methyl-quinolin-6-yl)-3-[{5-(phenylamino)-2-H-pyrazol-3-yl}methylsulfanyl]benzamide] | 2.21 | 172 to 174 | 
O=C(Nc1ccc(N2CCCC2)c(C(F)(F)F)c1)c1cccc(CCc2cc(Nc3cccnc3)n[nH]2)c1 [Example G-11] | 0.17 |  | 7
Cc1cc(NC(=O)c2ccc(F)c(OCc3cncc4ccccc34)c2)ccc1C(C)C [Example K-10, N-(4-Isopropyl-3-methyl-phenyl)-4-fluoro-3-(Isoquinolin-4-yl)methoxy-benzamide] | 2.19 |  | 8
CC(=O)Nc1ccc(COc2cccc(C(=O)Nc3ccc4nc(C)ccc4c3)c2)cn1 [Example N-1, 3-(6-Acetylaminopyridin-3-yl)methoxy-N-(2-methyl-quinolin-6-yl)-benzamide] | 3.74 |  | 10
